Laboratory results as given in US6335346B1 (MACEF, priority 1999, dated 2002).

Key:
[1] = system: chicks of chair label JA657 strain; test: Hypnotic and sedative activities in chicks (alternate lighting, test between 2.00 pm and 3.00 pm); conditions: for ST (sleeping time) / Sedation time (after waking up, Stage 2) / FAT (falling-asleep time): IM; for FAT (falling-asleep time): to the nearest minute
Beagle dogs = test: Hypnotic activity in Beagle dogs (polygraphic measurement of the conscious and sleeping states); type: in vivo, dog; conditions: for Mean duration of the state of consciousness: Consciousness / Mean duration of the state of consciousness: Drowsiness / Mean duration: P.S. (paradoxal sleep) / Mean duration: Slow-wave sleep S1 + S2 / Mean duration: Total sleep / Mean latency time: Drowsiness / Mean latency time: P.S. (paradoxal sleep) / Mean latency time: Slow-wave sleep S1: 7 Beagle dogs, IV single bolus; for Mean duration of the state of consciousness: Consciousness / Mean duration of the state of consciousness: Drowsiness / Mean duration: P.S. (paradoxal sleep) / Mean duration: Slow-wave sleep S1 + S2 / Mean duration: Total sleep: 150 min recording; for Hypnotic power (in words): Beagle dogs, IV, sleep with high proportion of slow waves, consciousness reduced, latencies reduced
Protocol: During each test, the dogs are taken to a recording room in which they are connected to a Schwarzer ED 24 polygraph driven by Brainlab® for Windows® by means of a flexible cable. The dog is then placed in a 0.70×1×0.8 m metal cage in which it stays for 150 minutes.
The test products and the placebo were administered intravenously as a single bolus into the anterior median vein. The recordings are noted in periods of 30 seconds following the five states of vigilance defined by Shelton et al.:
deep slow-wave sleep, and
by examining the amplitude and frequency of the 2 frontal EEG plots (frontal), the EOG plots (bilateral) and the EMG plots (neck muscles) as follows:
Conscious: The dogs may be standing, sitting or lying down, or moving between these positions. Their eyes are open. This state includes all the episodes of multiple voltage and frequency with muscular activity.
Drowsy: The dogs are lying down with the eyes closed for most of the time. The EEG plots show slow-wave cycles (5-7 Hz) without the appearance of spindles. Large-amplitude synchronous slow waves (4-7 Hz) appear on a background of rapid activity. The EMG tends to be reduced compared with the conscious state.
Light sleep (SL1 or S1): The dogs are lying down in the stretched ventral position or, usually, in an incomplete circle. The relaxation is total. The EEG plots are characterized by K complexes and/or spindles. The amplitude increases.
Deep sleep (SL2 or S2): The dogs are lying down, with relaxed muscles. They remain without reaction to moderate stimulations (by sound). The slow delta waves (<4 Hz) with an amplitude of at least 70 μV constitute at least 20% of a period of 30 seconds.
Paradoxal sleep (PS): The dogs are lying down with the eyes closed and occasionally display rapid contractions of the eyelids and/or myoclonia, in particular of the labial extensor muscles. The EEG plots are of low voltage and varied frequencies. The EOG plots show rapid contractions. The EMG plot is of low amplitude, with the exception of the short-lived clonus. A period is classified as paradoxal sleep only if the preceding period is a period of sleep. The end of a period of paradoxal sleep is determined by the appearance of K complexes or spindles, or by the appearance of EMG activity.
The test compounds are administered intravenously by means of a vehicle having the composition: 50/50 (V/V) PEG-400/water for injectable preparations, as a single bolus of 10 ml per 12 kg of live weight.
The placebo consists of the intravenous administration of the vehicle alone, having the composition: 50/50 (V/V) PEG-400/water for injectable preparations, as a single bolus of 10 ml per 12 kg of live weight.
The distribution of the observation time spent in each of the stages of consciousness and sleep, as well as the latency times for onset of the first stages of each type of sleep, are given in Table I.

[2] = 0.5 μmol/100 g, batch means of 3 chicks, limit values if >2 batches
[3] = 1 μmol/100 g, batch means of 3 chicks, limit values if >2 batches
[4] = 2 μmol/100 g, batch means of 3 chicks, limit values if >2 batches

Row | SMILES | ST (sleeping time) [1, 2] | ST (sleeping time) [1, 3] | Sedation time (after waking up, Stage 2) [1, 3] | FAT (falling-asleep time) [1, 3] | ST (sleeping time) [1, 4] | Sedation time (after waking up, Stage 2) [1, 4] | FAT (falling-asleep time) [1, 4] | other results
1 | COc1ccc2[nH]c3c(c2c1)CCN=C3C [10-METHOXYHARMALAN, 10-methoxy harmalan] |  |  |  |  |  |  |  | ST (sleeping time) ([1]; 1.4 μmol/100 g (3 mg/kg)): 0; Sedation time (after waking up, Stage 2) ([1]; 1.4 μmol/100 g (3 mg/kg)): 0
2 | CN1C(=O)CN=C(c2ccccc2)c2cc(Cl)ccc21 [DIAZEPAM, diazepam] | 10-50 | 24-70 | 17-20 | 2-7 | 81-100 | 14-15 | 2-5 | FAT (falling-asleep time) [1, 2]: 3-6
3 | C=C1c2[nH]c3ccc(OC)cc3c(=O)c2CN1C(C)=O [Example 1, 2-Acetyl-7-methoxy-3-methylene-9-oxo-1,3,4,9-tetrahydropyrrolo[3,4-b]quinoline] |  |  |  |  | 30 | 35 | 10.5 | 
4 | CCC1=C2c3[nH]c4ccc(OC)cc4c(=O)c3CN2C(=O)CC1 [Example 4] |  | 30 | 47 | 13 |  |  |  | Mean duration of the state of consciousness: Consciousness (Beagle dogs; 1.5 μmol/kg): 115.4 min; Mean duration of the state of consciousness: Drowsiness (Beagle dogs; 1.5 μmol/kg): 15.9 min; Mean duration: P.S. (paradoxal sleep) (Beagle dogs; 1.5 μmol/kg): 2.4 min; Mean duration: Slow-wave sleep S1 + S2 (Beagle dogs; 1.5 μmol/kg): 16.3 min; Mean duration: Total sleep (Beagle dogs; 1.5 μmol/kg): 34.6 min; Mean latency time: Drowsiness (Beagle dogs; 1.5 μmol/kg): 63.8 min; Mean latency time: P.S. (paradoxal sleep) (Beagle dogs; 1.5 μmol/kg): 114.8 min; Mean latency time: Slow-wave sleep S1 (Beagle dogs; 1.5 μmol/kg): 84.8 min; Hypnotic power (in words) (Beagle dogs): marked hypnotic power
5 | COc1ccc2[nH]c3c(c(=O)c2c1)CN1C(=O)CCC(c2ccccc2)=C31 [Example 5] |  |  |  |  |  |  |  | Mean duration of the state of consciousness: Consciousness (Beagle dogs; 1 μmol/kg): 108.1 min; Mean duration of the state of consciousness: Drowsiness (Beagle dogs; 1 μmol/kg): 15.8 min; Mean duration: P.S. (paradoxal sleep) (Beagle dogs; 1 μmol/kg): 2.6 min; Mean duration: Slow-wave sleep S1 + S2 (Beagle dogs; 1 μmol/kg): 23.4 min; Mean duration: Total sleep (Beagle dogs; 1 μmol/kg): 41.9 min; Mean latency time: Drowsiness (Beagle dogs; 1 μmol/kg): 51.7 min; Mean latency time: P.S. (paradoxal sleep) (Beagle dogs; 1 μmol/kg): 110.7 min; Mean latency time: Slow-wave sleep S1 (Beagle dogs; 1 μmol/kg): 69.0 min; Hypnotic power (in words) (Beagle dogs): marked hypnotic power; ST (sleeping time) ([1]; 0.87 μmol/100 g (3.12 mg/kg)): 36; Sedation time (after waking up, Stage 2) ([1]; 0.87 μmol/100 g (3.12 mg/kg)): 44; FAT (falling-asleep time) ([1]; 0.87 μmol/100 g (3.12 mg/kg)): 10
6 | COc1ccc2[nH]c3c(c(=O)c2c1)CN(C(C)=O)C3C (stereo not drawn) [Example 6, 2-Acetyl-7-methoxy-3-methyl-9-oxo-1,3,4,9-tetrahydropyrrolo[3,4-b]quinoline] |  |  |  |  | 33 | 27 | 15 | 
7 | CCC1CCC(=O)N2Cc3c([nH]c4ccc(OC)cc4c3=O)C12 (stereo not drawn) [Example 9] |  | 36 | 44 | 7 |  |  |  | 
8 | COc1ccc2c3c([nH]c2c1)C(C)=NCC3 [HARMALIN, harmaline] |  |  |  |  |  |  |  | ST (sleeping time) ([1]; 1.4 μmol/100 g (3 mg/kg)): 0; Sedation time (after waking up, Stage 2) ([1]; 1.4 μmol/100 g (3 mg/kg)): 0
9 | COc1ccc2[nH]cc(CCNC(C)=O)c2c1 [MELATONIN, melatonin] | 0 | 0 | 16-36 |  | 0 | 47-105 |  | Hypnotic activity (in words) ([1]; administration during the daylight phase between 2.00 pm and 3.00 pm): no hypnotic activity
10 | CCCC(C)C1(CC)C(=O)NC(=O)NC1=O (stereo not drawn) [PENTOBARBITAL, pentobarbital sodium] | 0 | 36 |  | 13 |  |  |  | 
